Measurements taken from PMC6491995, “Preclinical evaluation of the first intravenous small molecule MDM2 antagonist alone and in combination with temozolomide in neuroblastoma” (International Journal of Cancer, 2019).

What was measured:
[1] = PK of orally formulated idasanutlin in subcutaneous NGP neuroblastoma xenograft model; assay type: in vivo; settings: single oral dose equivalent to 100 mg/kg active idasanutlin, subcutaneous NGP xenograft mice, preliminary studies
Method: We previously conducted similar PK/PD analyses of orally formulated idasanutlin in preliminary studies of a subcutaneous NGP neuroblastoma xenograft model after a single oral dose equivalent to 100 mg/kg of active idasanutlin (Fig. S8, Supporting Information).
Figure S8. PK and PD analysis of orally formulated idasanutlin in a TP53 wt subcutaneous xenograft model of neuroblastoma. Female CD1 nude mice were implanted subcutaneously with […] TP53 wt, MDM2 and MYCN amplified NGP neuroblastoma cells. A) PK analysis of idasanutlin levels using LC-MS in plasma samples harvested at the indicated time points from tumour bearing mice treated with a single dose equivalent to 100mg/kg of active idasanutlin by oral gavage. PD profiling for B) induction of the p53 pathway using Western analysis of p53, p21, and MDM2 levels in tumours, and C) MIC-1 levels in plasma harvested at the indicated time points from subcutaneous NGP tumour bearing mice treated with a single dose of idasanutlin by oral gavage. n=3 mice per time point. CTR, control.
(1 picture or pasted object on this page, not shown here)

NB1691 cells = tested on: NB1691 cells; parameters: method as in PMID 25844600; settings: 72 h, read-out: 72 h GI50 concentration; cited from earlier work
[2] = tested on: SHSY5Y-Luc orthotopic tumours; test: Efficacy study in SHSY5Y-Luc orthotopic tumour bearing mice; assay type: in vivo; settings: for Reduction in bioluminescence vs. control: RO6839921 eq. 100 mg/kg IV weekly, temozolomide 34 mg/kg PO daily x5; for %ILS (Median): increase in lifespan vs. control based on median survival
Method: (§1) All in vivo experiments were approved by the licencing and ethical committee of the IRCCS San Martino‐IST (Genoa, Italy), the Italian Ministry of Health, Newcastle University and the UK Government Home Office. Orthotopic murine SHSY5Y‐Luc or NB1691‐Luc models were established and monitored using bioluminescence (BLI) IVIS imaging, as previously described.18, 19, 20 RO6839921 (equivalent to 100 mg/kg of active idasanutlin) and temozolomide (34 mg/kg equivalent to 100 mg/m^2 were given by IV tail vein injection and oral gavage, respectively. Tumour bearing mice were randomised into n = 3/group and n = 8/group for pharmacokinetic (PK)/pharmacodynamic (PD) studies and efficacy studies, respectively, and samples taken at the indicated time points (Supporting Information Fig. S1). To minimise esterase activity, 0.2% dichlorvos (Sigma‐Aldrich) was added to blood samples. […] Animals were monitored 2–3 times weekly and euthanized humanely just before showing signs of illness/suffering such as abdominal dilatation, paraplegia, dehydration, or severe weight loss. Percentage increase in lifespan (%ILS) was calculated based on both median and mean survival to humane endpoint, as previously described.5 For more detailed procedures see Supporting Information.
(§2) The efficacy of RO6839921 alone and in combination with temozolomide was assessed in SHSY5Y‐Luc and NB1691‐Luc orthotopic tumour bearing mice. The intermittent schedule used is equivalent to one cycle of treatment over a 3 week period (Fig. S1, Supporting Information). Mice were randomised into control, RO6839921 (once per week for 3 weeks), temozolomide (daily x5/3 weeks; consistent with the currently used clinical dosing schedule in the BEACON Trial (NCT02308527)), or RO6839921 and temozolomide treatment groups (n = 8/group; Fig. S1, Supporting Information).
(§3) Supplementary Information
(§4) Detailed methods of orthotopic in vivo experiments
(§5) Five week old female athymic Nude-Foxn1nu mice (Envigo, Bresso, Italy) were anesthetized, subjected to a laparotomy and orthotopically injected with 1×10^6 SHSY5Y-Luc or NB1691-Luc neuroblastoma cells into the capsule of the left adrenal gland, as previously described (1-3). […]
(§6) using BLI IVIS imaging for tumour development (~2-3 weeks) prior to commencement of treatment. […]
(§7) 10min and stored at -80°C. For efficacy studies, SHSY5Y-Luc or NB1691-Luc tumour bearing mice were randomized […]
(§8) temozolomide (34mg/kg, daily x5 only by oral gavage) or RO6839921 and temozolomide treatment groups with 8 mice per group (Figure S1), and monitored by IVIS imaging for tumour growth. Baseline bioluminescence were measured prior to initiation of treatment on Day 1, and then during treatment on Days 8 (BLI1) and 15 (BLI2) (Figure S1). Twenty-four hours after the end of treatment, 3 mice per group were sacrificed for PK and PD analyses, and the remaining 5 mice per group were monitored for survival to humane endpoint (Figure S1). Animals were monitored 2-3 times weekly

[3] = tested on: NB1691-Luc orthotopic tumours; test: Efficacy study in NB1691-Luc orthotopic tumour bearing mice; assay type: in vivo; settings: for Reduction in bioluminescence vs. control: RO6839921 eq. 100 mg/kg IV weekly, temozolomide 34 mg/kg PO daily x5; for %ILS (Median): increase in lifespan vs. control based on median survival
Method: as §1, §2, §3, §4, §5, §6, §7, §8

[4] = tested on: NB1691-Luc orthotopic tumours; test: IHC analysis of NB1691-Luc orthotopic tumours after one treatment cycle; assay type: in vivo, mice; settings: 24 h after one treatment cycle, n = 3
Method: Tumours were disaggregated in Phosphosafe buffer (Merck Millipore) using the Medimachine with Medicons inserts (BD Biosciences, Oxford, UK) and Western analysis carried out as previously described.21 Human MIC‐1 assays were performed according to manufacturer's protocols (R&D Systems). IHC was performed using validated protocols and the Ventana Benchmark Ultra automated system (Ventana Medical Systems, Inc, Tucson, AZ, USA) in the Cellular Pathology Department, Royal Victoria Infirmary, Newcastle upon Tyne, UK.
Figure 3 MIC‐1 levels and IHC analysis of Ki67, p53, p21, and cleaved caspase 3 (CC3) in orthotopic tumours in response to one cycle of RO6839921 and temozolomide alone and in combination. […] Statistically significant differences vs. control were determined by unpaired t‐tests. […] Graphical representation of quantification of % positive Ki67, p53, p21, and CC3 staining in (d) NB1691‐Luc and (e) SHSY5Y‐Luc orthotopic tumours using Imagescope software and algorithms (Leica Biosystems, Newcastle upon Tyne, UK) and/or scored for positive immunostaining by a consultant pathologist (KW). n = 3 mice per group. […] Statistically significant differences were determined by one‐way ANOVA with Bonferroni post‐hoc tests and paired testing vs. control. p ≤ 0.05 (*); 0.01 (**); 0.001 (***); 0.0001 (****). […]

[5] = parameters: method as in PMID 16047361, PMID 9744506, PMID 9738573, PMID 17114659; settings: clinical data in children; cited from earlier work
[6] = after 1 week of treatment (Day 8/BLI1)
[7] = after 2 weeks of treatment (Day 15/BLI2)
[8] = increase in lifespan vs. control based on mean survival
[9] = survival to humane endpoint, n = 5/group, one treatment cycle

| SMILES | Plasma concentration of active idasanutlin [1] [µg/mL] | GI50 (NB1691 cells) [µM] | Reduction in bioluminescence vs. control [2, 6] [%] | Reduction in bioluminescence vs. control [2, 7] [%] | %ILS (Mean) [2, 8] [%] | %ILS (Median) [2] [%] | %ILS (Median) ([2]; listed as Temozolomide) [%] | Mean Survival [2, 9] [days] | Median Survival [2, 9] [days] | Reduction in bioluminescence vs. control [3, 6] [%] | Reduction in bioluminescence vs. control [3, 7] [%] | %ILS (Mean) [3, 8] [%] | %ILS (Median) [3] [%] | %ILS (Median) ([3]; listed as Temozolomide) [%] | Mean Survival [3, 9] [days] | Median Survival [3, 9] [days] | Ki67 positive cells vs. control (IHC) [4] | Main toxicities in children [5] |
| --- | --- | --- | --- | --- | --- | --- | --- | --- | --- | --- | --- | --- | --- | --- | --- | --- | --- | --- |
| COc1cc(C(=O)O)ccc1NC(=O)[C@@H]1N[C@@H](CC(C)(C)C)[C@](C#N)(c2ccc(Cl)cc2F)[C@H]1c1cccc(Cl)c1F [idasanutlin, Idasanutlin] | ~5 | 0.041 | – | – | – | – | – | – | – | – | – | – | – | – | – | – | – | – |
| Cn1nnc2c(C(N)=O)ncn2c1=O [temozolomide] | – | 868 | 36 | 39 | 11 | 14 | 14 | 49 | 49 | 35 | 24 | 16 | 6 | 6 | 41 | 37 | did not reduce | thrombocytopenia and neutropenia |
